Like-named read-outs stand apart in the source and are kept apart here.
Tests used:
[1] = system: HTLV-III/LAV; conditions: H9 cells; Schaffner et al. 1986; cited from earlier work
[2] = water, cited from earlier work
[3] = system: human red blood cells; assay: Lysis of human red blood cells (hemoglobin release at 550 nm); format: cell-based; conditions: SLS present in F-SPA-222
Description: The human RBCs were incubated at 37° C. for 45 min. with ( X) free-SPA-222, (Δ) sodium lauryl sulfate, ( .circle. ) free SPA-160, ( .circle. ) liposomal SPA-160 (L-SPA-160) in liposomes composed of DMPC:DMPG (7:3), ( ) L-SPA-160 in liposomes composed of DMPC:DMPG+cholesterol (9:1) or ( ) L-SPA-160 in liposomes composed of DMPC:DMPG+ergosterol (9:1)
Lysis of human red blood cells (HRBCs) was quantitated by measuring the release of hemoglobin in the supernatants at 550 nm, as described previously (Mehta et al., Biochim. Biophys, Acta., Vol. 770, pp. 230-234 (1984)). Various doses of L-SPA were incubated with fresh washed human RBCs at 37° C. for 45 minutes,24 hr, 48 hr and 96 hr.
Lysis of HRBCs was quantitated by measuring the release of hemoglobin in the supernatants at 550 nm as previously described (Mehta et al., (1984) Biochem. Biophys. Acts, 770:230). Various doses of L-SPA-160 were incubated with fresh washed HRBCs at 37° C. for 45 minutes, 24, 48 and 96 hrs. Free-SPA-222, stock dissolved in water and diluted with isotonic PBS was added to the assay. F-SPA-160 as DMFA solution diluted with isotonic PBS was also used as a control and contained 3% DMFA at a final concentration of drug at 300 ug ml. Appropriate solvent controls and empty liposomes were also included in each experiment. […]

[4] = compared with partricin; cited from earlier work

Molecule | Inhibition of HTLV-III/LAV replication (in words) [1] | Aqueous solubility (in words) [2] | further results
C[C@@H]1[C@H](O)[C@@H](C)/C=C/C=C/C=C/C=C/C=C/C=C/C=C/[C@H](O[C@@H]2O[C@H](C)[C@@H](O)[C@H](N)[C@@H]2O)C[C@@H]2O[C@](O)(C[C@@H](O)C[C@@H](O)[C@H](O)CC[C@@H](O)C[C@@H](O)CC(=O)O[C@H]1C)C[C@H](O)[C@H]2C(=O)O [Amphotericin B] | inhibited | insoluble in water | –
C[C@@H]1[C@H](O)[C@@H](C)/C=C/C=C/CC/C=C/C=C/C=C/C=C/C(O[C@H]2O[C@H](C)[C@@H](O)[C@H](N)[C@@H]2O)CC2O[C@](O)(CC(O)C(O)CCC(O)CC(O)CC(O)CC(=O)O[C@H]1C)CC(O)C2C(=O)O (some centres unmarked) [Nystatin] | – | aqueous insolubility | –
CCCCCCCCCCCCOS(=O)(=O)[O-].[Na+] [SLS, sodium lauryl sulphate] | – | – | Share of F-SPA-222 RBC toxicity associated with SLS [3]: Fifty percent
COC(=O)[C@H]1[C@@H]2C[C@@H](O[C@@H]3O[C@H](C)[C@@H](O)[C@H](N)[C@@H]3O)/C=C/C=C/C=C/C=C/C=C/C=C/C=C/[C@H](C)[C@@H](O)[C@@H](C)[C@H](C)OC(=O)C[C@H](O)C[C@H](O)CC[C@@H](O)[C@H](O)C[C@H](O)C[C@](O)(C[C@@H]1O)O2 [amphotericin B methyl ester ascorbate] | inhibited | – | –
Mepartricin | – | low aqueous solubility | Aqueous solubility (in words) ([2]; listed as mepartricin): substantially water-insoluble; Toxicity to animals relative to partricin (in words) [4]: much less toxic to animals than partricin

Source: US4981690A, “Liposome-incorporated mepartricin” (priority 1987, dated 1991)
